# Experimental data taken from patent publication US20050038259A1, “Hydroxyeicosenoic acid anaglogs” (priority 2001, published 2005).
# What was measured:
# Rat neutrophils = assay: Test for elastase production by fMLP stimulation (elastase release inhibition); format: cell-based; details: Neutrophil; elastase release from cytochalasin B-primed rat neutrophils stimulated with fMLP (1 μM); elastase activity in supernatant
# Description: Rat neutrophils preparation was obtained 15-18 hrs after intraperitoneal injection of a 1% sterile casein solution in saline (120 mL/kg). Cells were harvested by peritoneal lavage after the decapitation. The lavage fluid was ice-cold PBS (Phosphate-Buffered Saline). Peritoneal exudates were pooled, centrifuged and suspended in HBSS (Hanks' Balanced Salt Solution) at 1×10^7 cells/mil. Cytochalasin B (final concentration: 5 μg/ml) were added to prime the cells. The cells were added into a 96-well culture plate (190 μL/well) and then the compounds of the present invention at various concentrations (10^−7 to 3×10^−5 M) were added and incubated at 37° C. in an atmosphere of 5% CO2 in air. After 10 minutes, fMLP (20 μM, 10 μL) was added, while 10 μL of an HBSS solution containing 0.4% ethanol was added to the group to which no fMLP was added. After gently stirring, cells were incubated for further 10 minutes. The reaction was stopped on ice, and an incubated supernatant was recovered by centrifugation.
# Elastase activity in the incubated supernatant was measured using a specific elastase substrate, N-succinyl-L-alanyl-L-alanyl-L-proline-valine-MCA (Peptide Institute, Inc., Osaka), 0.12 mM in 50 mM Tris-HCl (pH 8.0). Fifty microliter of an incubated supernatant was added to the substrate solution (50 μL) and incubated at 37° C. for 30 minutes. Elastase activity was assayed at a wavelength of 360 nm at excitation and 480 nm at emission.
# Elastase release-inhibiting activity (inhibition ratio) was calculated according to the following equation: Inhibition ratio (%)={1−(A−C)/(B−C)}×100 wherein A stands for a fluorescence intensity when […]; and C stands for a fluorescence intensity when fMLP (1 μM) was not added.
# Inhibitory concentration of 50% (IC50 value) of the compound of the invention was calculated with a concentration-inhibition ratio curve.
# [1] = system: Rat transient MCA occlusion (t-MCAo) model; assay: Infarct volume in rat transient MCA occlusion (t-MCAo) model; format: in vivo; details: intravenous 1 hour infusion immediately after reperfusion
# Description: FIG. 1 represents an effect of the compound 50 on infarct volume in rat t-MCAo model. The infarct volumes of total (closed bar), cortex (solid bar) and sub-cortex (open bar) were determined 71 hrs after reperfusion. Data are presented as mean ±SEM. *p<0.05 vs vehicle-treated group (Dunnett's test).
# Adult male Wistar rats (200-250 g) were anesthetized with 2% halothane in air. The right internal carotid artery (ICA) was carefully dissected. A silicon-coated suture (18 mm-long) was inserted to the ICA. Body temperature was maintained at 37° C. with a heating pad. […] After 1 hour of MCA occlusion, the thread was removed to allow reperfusion of the ischemic area. Rats were received intravenously 1 hour-infusion of vehicle (10% of HP-β-CD) or the compound 50 dissolved in vehicle immediately after reperfusion.
# To measure infarct volume, rats were killed at 71 hours of reperfusion. Brains were perfused transcardially with physiological saline, and removed from skulls, cut into 2-mm coronal sections. The slices were immersed in 2% triphenyltetrazolium chloride (TTC) solution at 37° C. for 30 minutes.
# All values were presented as mean ±SEM. For statistical analyses, Dunnett's multiple-range test was used.
smiles,measurement,setting,value
"CCCC[C@@H](O)C#CCCCCCCCCCCCCCC(=O)O [Compound 4, (R)-17-Hydroxyheneicos-15-ynoic acid]",IC50,Rat neutrophils,10.3 µM
"CCCC[C@@H](O)C#CCCCCCCCCCCCCC(=O)O [Compound 12, (R)-16-Hydroxyeicos-14-ynoic acid]",IC50,Rat neutrophils,9.18 µM
"CCCC[C@@H](O)/C=C\CCCCCCCCCCCCC(=O)O [Compound 50, (R)-(Z)-16-Hydroxyeicos-14-enoic acid]",IC50,Rat neutrophils,8.29 µM
same,reduction of total infarct volume as compared with vehicle-treated group,"[1]; 0.01 mg/kg/min, 71 hours of reperfusion, significant",35.3%
same,effect on infarct volume,"[1]; from 0.001 mg/kg/min, doses 0.001, 0.01, 0.1 mg/kg/min",reduced the infarct volume
"CCCC[C@@H](O)/C=C\CCCCCCCCCCCC(=O)O [Compound 65, (R)-(Z)-15-Hydroxynonadec-13-enoic acid]",IC50,Rat neutrophils,17.5 µM
